Measurements reported in PubChem BioAssay AID1963863 (Molecular Pharmacology Branch, DTP, NCI, 2024).

System: 931267-113-T-J1-PDC KRAS spheroid with HUVEC/MSC, viability
Assay: Anticancer human tumor 931267-113-T-J1-PDC patient-derived colon adenocarcinoma cell line growth inhibition [KRAS2]
Details: for IC50: curve of first compound; for viability, T/C: stronger effect = lower value
In short: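 Combination screen of spheroid viability in tumor-cell co-cultures with endothelial (HUVEC) and mesenchymal stem cell stroma. Each agent was tested in half-log dilutions, topping at clinical Cmax or at 10 microM without a known Cmax.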

[1] = second compound 0.1 µM, first compound 0.000316 µM
[2] = second compound 0.1 µM, first compound 0.001 µM
[3] = second compound 0.1 µM, first compound 0.00316 µM
[4] = second compound 0.1 µM, first compound 0.01 µM
[5] = second compound 0.1 µM, first compound 0.0316 µM
[6] = second compound 0.1 µM, first compound 0.1 µM
[7] = second compound 0.316 µM, first compound 0.000316 µM
[8] = second compound 0.316 µM, first compound 0.001 µM
[9] = second compound 0.316 µM, first compound 0.00316 µM
[10] = second compound 0.316 µM, first compound 0.01 µM
[11] = second compound 0.316 µM, first compound 0.0316 µM
[12] = second compound 0.316 µM, first compound 0.1 µM
[13] = second compound 1 µM, first compound 0.000316 µM
[14] = second compound 1 µM, first compound 0.001 µM
[15] = second compound 1 µM, first compound 0.00316 µM
[16] = second compound 1 µM, first compound 0.01 µM
[17] = second compound 1 µM, first compound 0.0316 µM
[18] = second compound 1 µM, first compound 0.1 µM
[19] = second compound 3.16 µM, first compound 0.000316 µM
[20] = second compound 3.16 µM, first compound 0.001 µM
[21] = second compound 3.16 µM, first compound 0.00316 µM
[22] = second compound 3.16 µM, first compound 0.01 µM
[23] = second compound 3.16 µM, first compound 0.0316 µM
[24] = second compound 3.16 µM, first compound 0.1 µM
[25] = second compound 10 µM, first compound 0.000316 µM
[26] = second compound 10 µM, first compound 0.001 µM
[27] = second compound 10 µM, first compound 0.00316 µM
[28] = second compound 10 µM, first compound 0.01 µM
[29] = second compound 10 µM, first compound 0.0316 µM
[30] = second compound 10 µM, first compound 0.1 µM
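Also: compound exposure lasted 7 days before the readout.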
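For viability, T/C in this document: 100% = DMSO vehicle control viability.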

Row | SMILES | IC50 (second compound 0.1 µM) [nM] | IC50 (second compound 0.316 µM) [nM] | IC50 (second compound 1 µM) [nM] | IC50 (second compound 3.16 µM) [nM] | IC50 (second compound 10 µM) [nM] | viability, T/C [1] [%] | viability, T/C [2] [%] | viability, T/C [3] [%] | viability, T/C [4] [%] | viability, T/C [5] [%] | viability, T/C [6] [%] | viability, T/C [7] [%] | viability, T/C [8] [%] | viability, T/C [9] [%] | viability, T/C [10] [%] | viability, T/C [11] [%] | viability, T/C [12] [%] | viability, T/C [13] [%] | viability, T/C [14] [%] | viability, T/C [15] [%] | further results
1 | Cn1ncnc1[C@H]1c2n[nH]c(=O)c3cc(F)cc(c23)N[C@@H]1c1ccc(F)cc1 + CNCc1ccccc1-c1csc(C(C)Nc2nc(C)nc3cc(OC)c(OC)cc23)c1 | > 100 | > 100 | < 0.316 | < 0.316 | < 0.316 | 95.4 | 85.4 | 92.4 | 84 | 80.9 | 72.6 | 62.4 | 66.7 | 66.5 | 59.9 | 52.5 | 56.6 | 42.1 | 61.8 | 43.2 | viability, T/C [16]: 32.8%; viability, T/C [17]: 52.6%; viability, T/C [18]: 32.3%; viability, T/C [19]: 0.09%; viability, T/C [20]: 0.09%; viability, T/C [21]: 0.09%; viability, T/C [22]: 0.07%; viability, T/C [23]: 0.1%; viability, T/C [24]: 0.19%; viability, T/C [25]: 0.14%; viability, T/C [26]: 0.13%; viability, T/C [27]: 0.13%; viability, T/C [28]: 0.14%; viability, T/C [29]: 0.16%; viability, T/C [30]: 0.98%
2 | CC(C)n1nc(-c2ccc3oc(N)nc3c2)c2c(N)ncnc21 + COc1cc2nc(C)nc(NC(C)c3cc(N)cc(C(F)(F)F)c3)c2cc1OC1CCOC1 | 9.26 | 7.45 | 9.33 | 6.56 | < 0.316 | 109 | 92.5 | 69 | 50.5 | 31.1 | 24.9 | 108 | 91.7 | 77.3 | 39.1 | 28.1 | 24.2 | 84.5 | 101 | 65.9 | viability, T/C [16]: 51.7%; viability, T/C [17]: 30.9%; viability, T/C [18]: 23.9%; viability, T/C [19]: 79%; viability, T/C [20]: 75.8%; viability, T/C [21]: 63.7%; viability, T/C [22]: 41.9%; viability, T/C [23]: 28.6%; viability, T/C [24]: 23.6%; viability, T/C [25]: 1.37%; viability, T/C [26]: 1.1%; viability, T/C [27]: 6.43%; viability, T/C [28]: 3.9%; viability, T/C [29]: 2.74%; viability, T/C [30]: 1.79%
